# “Also recorded” adds a separate entry of the source.
# Assays:
# rat cornea = assay: Rat cornea pocket angiogenesis assay (growth factor pellets); format: in vivo
# Experimental: (i) Preparation of sustained-release polymer: Sustained-release polymer pellets were prepared by making a 1:1 mix of a 12% solution in ethanol of the polymer (Hydron polyhydroxyethylmethacrylate), with saline containing the growth factors. The growth factors bFGF, VEGF, and EGF were dissolved at a concentration of 125 ng/μl. […] 2 μl of these solutions were added to each pellet. Thus, a pellet containing 250 ng of a single growth factor was implanted at random in the right or left eye. The other eye was implanted with a pellet containing the same dose of growth factor+HET0016. In some rats the pellet contained VEGF alone and VEGF+DDMS. 20 μg of the stable 20-HETE agonist analog WIT003 was implanted in one eye to determine whether it induces angiogenesis. […] 9 μl of the 1:1 Hydron/treatment mixture was placed on the ends of 1.5-cm rods. Each pellet contained 250 ng of its respective growth factor. For bFGF we used sucralfate to stabilize and allow sustained release of this growth factor (Volkin D B et al., Biochim Biophys Acta 1993, 1203:18-26). After drying the pellets for 1 hour, they were ready to be implanted into the cornea of rats.
# (ii) Pellet implantation: The rats were anesthetized IM with ketamine (80 mg/kg) and xylazine (10 mg/kg). The eyes were topically anesthetized with 0.5% proparacaine (Ophthetic, Alcon, Tex.) and the globes proptosed with a jeweler's forceps. Using an operating microscope, a central intrastromal linear keratotomy, approximately 1.5 mm in length, was performed with a surgical blade (Bard-Parker #11; Becton Dickinson, Franklin Lake, N.Y.) parallel to the insertion of the lateral rectus muscle. A curved iris spatula (No. 10093-13, Fine Science Tools, Belmont, Calif.) approximately 1.5 mm wide and 5 mm long was inserted under the lip of the incision and gently pushed through the stroma toward the temporal limbus of the eye. The distance between the limbus and the base of the pocket was kept at 1.0±0.1 mm. The pellet was advanced to the temporal end of the pocket. Antibiotic ointment (erythromycin) was applied to the anterior surface of the eye.
# (iv) Quantitation of corneal neovascularization: Seven days after pellet implantation, the rats were deeply anesthetized as previously described with ketamine and xylazine. The left ventricle was cannulated and the animal was perfused with 20-25 ml saline through the left ventricle followed by 20-25 ml India ink (waterproof drawing ink, Sanford, Bellwood, Ill.). The eyes were marked for orientation, enucleated and placed in 4% formalin for 24 hours. The cornea was dissected free from the surrounding globe and underlying iris, bisected, and loosely mounted between two glass slides, thus gently flattening the cornea. These flat mounts were examined microscopically using a Nikon Diaphot Epi-fluor 2 microscope attached to a CCD video camera and the images were digitized and saved using a computer.
# Neovascularization was determined by comparing total vessel length in the control and experimental eyes. Vessel length was determined by tracing each vessel from the limbus to the pellet. Total length is the sum of these values in pixels and was determined using conventional image analysis software (Sigma Scan Pro, SPSS, Chicago, Ill.)
# U251 human glioma cells = assay: U251 cell proliferation assay (cell counting); format: cell-based
# Experimental: Culture Conditions: Cells were routinely maintained in DMEM (Invitrogen) supplemented with 10% heat-inactivated fetal bovine serum (FBS), penicillin (10 IU/ml), streptomycin (10 μg/ml) and 10% non-essential amino acids (all purchased from Invitrogen). Cells were maintained at 37° C. in a humidified incubator containing 5% CO2. They were grown in medium containing 10% FBS, which was then replaced with serum-free medium where U251 cells grow exponentially. Treatments were initiated one day after serum removal.
# (§1) Cell Proliferation Assays: Proliferation studies were performed with cultures plated at a density that ensured exponential growth for at least 5 days. Growth medium was generally replaced by serum-free medium 24 hr after plating. Cells were treated with various concentrations of a given compounds for 24 or 48 hr as described in the Methods. […] Organic solvent never exceeded 0.1% of total culture volume. Cells were harvested by exposure to 0.05% trypsin/EDTA and counted using a hemocytometer.
# HUVECs = assay: Proliferation of normal HUVECs (comparison with U251); format: cell-based, human; conditions: 10 μM HET0016, 48 hrs; DDMS concentration not given
# Experimental: (§2) Mean values±SD from three separate experiments, each performed in triplicate, are presented. *** indicates p<0.001 from the respective control values.
# as §1
# [1] = test system: primary human keratinocytes; assay: Proliferation of primary human keratinocytes (comparison with U251); format: cell-based; conditions: 10 μM HET0016, 48 hrs; DDMS concentration not given
# Experimental: as §2, §1
# CYP4A11 mRNA = assay: RT-PCR of CYP4A11 mRNA in U251 cultures; format: cell-based, human; conditions: 100 μM DDMS
# Experimental: EtOH-treated cultures were used as solvent controls. Briefly, total RNA was isolated with Trizol reagent (Invitrogen) and 1-2 μg RNA was used to synthesize cDNA using a First Strand synthesis kit (Invitrogen). We used PCR primers that specifically recognize CYP4A11, and β-actin-specific primers. A 1 μCi ^32P per sample was added to Platinum PCR Supermix (Invitrogen). The PCR conditions used to amplify CYP4A 11 and β-actin consisted of a precycle of 95° C for 3 min followed by 35 cycles of 95° C for 45 s, 52° C. for 30 s, and 72° C. for 2 min, with final extension at 72° C. for 10 min. The primers used were: β-actin forward primer, 5′-TGCGTGACATTAAGGAGAAG-3′ (SEQ ID NO:3); β-actin reverse primer, 5′-GCT CGT AGC TCT TCT CCA-3′ (SEQ ID NO:4); CYP4A11 forward primer, 5′-CCACCTGGACCAGAGGCCCTACACCACC-3′ (SEQ ID NO:5); CYP4A11 reverse primer, 5′-AGGATATGGGCAGACAGGAA-3′(SEQ ID NO:6). PCR products were subjected to electrophoresis in 5% bis-acrylamide gels and visualized by autoradiography.
# 9L rat gliosarcoma cells = assay: 9L cell proliferation assay (cell counting); format: cell-based
# Experimental: Culture Conditions: 9L rat gliosarcoma cells were purchased from ATC (Gaithersburg, Md.) and were maintained in DMEM (Invitrogen) supplemented with 10% heat-inactivated fetal bovine serum (FBS), penicillin (10 IU/ml), streptomycin (10 μg/ml) and 10% non-essential amino acids (all purchased from Invitrogen). Cells were maintained at 37° C. in a humidified incubator containing 5% CO2. They were grown in medium containing 10% FBS, which was then replaced with serum-free medium (give type and source) where 9L cells grow exponentially.
# Cell Proliferation Assays: Proliferation studies were performed with cultures plated at a density that ensured exponential growth for at least 5 days. Growth medium were generally replaced by serum free medium 24 hr after plating. […] The concentration of the ethanol added to the media never exceeded 0.1%. Cells were harvested by exposure to a solution of 0.05% Trypsin/EDTA and counted using a hemocytometer.
# CYP4A = conditions: read-out: IC50 for inhibition of CYP4A enzyme activity; cited from earlier work
compound,measurement,setting,value
"CS(=O)(=O)NC(=O)CCCCCCCCCC=C(Br)Br [DDMS, dibromododecenyl methylsulfonimide]",angiogenic response to inhibitor alone,"rat cornea; 20 μg HET0016 or 10 μg DDMS per pellet, no growth factor",Neither HET0016 nor DDMS alone elicited a response different from saline
same,effect on the angiogenic response to VEGF,rat cornea; VEGF 250 ng/pellet + 10 μg DDMS,as effective as 20 μg HET0016; also recorded: completely inhibits the angiogenic response; also recorded: abolished; also recorded: inhibit angiogenic responses to VEGF
same,blockade of U251 cell proliferation,"U251 human glioma cells; DDMS, concentration not given",about 60%
same,concentration dependence of inhibition of U251 proliferation,U251 human glioma cells; various concentrations,inhibited the proliferation of U251 cancer cells in a dose-dependent manner; also recorded: inhibited the proliferation of U251 cells in a concentration dependent manner
same,effect on basal growth or proliferation of normal HUVECs,HUVECs,Neither DDMS or HET0016 had any effect
same,effect on basal growth or proliferation of primary human keratinocytes,[1],Neither DDMS or HET0016 had any effect
same,CYP4A11 transcript levels,CYP4A11 mRNA,not affected
same,effect on 9L cell number,9L rat gliosarcoma cells; DDMS 10 μM,significant reduction in cell number
same,inhibition of 9L cell proliferation,"9L rat gliosarcoma cells; DDMS, concentration not given",60%
same,IC50,CYP4A,~10 µM

# Reference: patent US20050124618A1, “Methods of modulating angiogenesis and cancer cell proliferation” (priority 2003, published 2005)
